Consider one substance from patent US20090105149A1, “Compounds comprising lpa” (ENKAM PHARMACEUTICALS A/S, priority 2003, published 2009).

Marks after values point to notes of the source that are not given here.

Assay [1] relates to rats treated with (25-35) β-amyloid fragment. Description: Social Recognition test, (25-35) β-amyloid fragment rat model. Format: in vivo. Particulars: days 7, 10, 13. The method, then:
The results are from the experiment in which the suboccipital administration of 5.0 μg FGL per administration per rat was done at days 7, 10, and 13 after A-β-induced neurotoxicity. […] The number of animals in the groups varied from 4 to 22. The results were analysed using one-way ANOVA (F(2,27)=15.4, P<0.0001) and significance of results was contingent on achieving a p-value of less than 0.05 (**p<0.01), when compared to the A-β/V group (Newman-Keuls post-test). […] FGLcontrol as above.
[…] The number of animals per group varied from 4 to 5. The results were analysed using unpaired t-test and significance of results was contingent on achieving a p-value of less than 0.05 (*p<0.05), when compared to the A-β/N group. […]
The present study employed a rat model, in which neurotoxicity and cognitive impairment were induced by the (25-35) β-amyloid peptide fragment (see Maurice T., et al. (1996) (Brain Res. 706:181-93) and Delobette S., et al. (1997) Eur J Pharmacol. 319:1-4). […] Short-term memory deficit in rats was evaluated using three different behavioural tests: the Social Recognition (Kogan et al, (2000) Hippocampus 10:47-56), Open Field (Cerbone and Sadile, (1994) Neurosci Biobehav Rev. 18:497-518; Vianna et al, (2000) Learn Mem. 7:333-40) and Y-maze (Clayton & Williams, (2000) Neurobiol Learn Mem. 74:135-45) tests. […]

The subject of the next assay is adult male Wistar rats. Description: Contextual Fear Conditioning test. Format: in vivo, rat. Particulars: 5 μg immediately after training. The text has this:
In the Contextual Fear Conditioning test, rats experienced inescapable shocks when exposed to a *new environment, which results in the development of a conditioned fear response, consisting of a characteristic immobility or ‘freezing response’, when subsequently re-exposed to the same environment.
The rats were handled for 120 seconds every day for 3 days preceding the first day of the experiment. On day 1 (training), the rats received a 1-second shock (unconditioned stimuli) each minute for two minutes. Animals were injected immediately after training with 5 μl FGLd (5 μg), the control peptide (5 μg) or the vehicle. Each treatment group consisted of 11-14 rats. In total, 39 animals were evaluated. Animals were tested on days 2, 7 and 30 by placing them in the chamber used for conditioning, but in the absence of a shock, for 8 minutes. Each rat was rated as either “freezing” or “active”, every 2 seconds, using a time-sampling procedure.

Assay [2] deals with cerebellar granule neurons (CGN). Description: Survival of CGN induced to undergo apoptosis by low KCl. To be noted: for Neuronal Survival (% of Control): Low K+ (5 mM).
Description: Cerebella granular meurons (CGN) (e and f) from postnatal day 7 rats were grown at a density of 100,000 cells/cm^2 for 7 days on poly-L-lysine coated microtiter plates in the medium containing 40 mM KCl, then the medium was substituted to a 5 mM KCl containing medium supplemented with various concentrations of FGLd.
For the experiments cerebellar tissue was dissected in modified Krebs-Ringer solution kept on ice, and treated as described for the hippocampal neurons above. All cell cultures were incubated at 37° C. in a humidified atmosphere containing 5% CO2.
Primary cultures of CGN were plated at a density of 100,000 cells/cm^2 on poly-L-lysine coated 8-well permanox slides in Neurobasal-A medium (Gibco, BRL) supplemented with 2% (v/v) B27, 0.5% (v/v) glutamax, 100 U/ml penicillin, 100 μg/ml streptomycin and KCl, making the final concentration of KCl in the medium 40 mM. 24 hours after plating, cytosine-β-D-arabinofuranoside (Ara-C; Sigma-Aldrich) was added to a final concentration of 10 μM to avoid proliferation of glial cells, after which the neurons were allowed to differentiate for further six days at 37° C. Apoptotic cell death was induced by washing twice and changing the medium to Basal Medium Eagle (BME; Gibco BRL) supplemented with 1% (v/v) glutamine, 100 U/ml penicillin and 100 μg/ml streptomycin, 3.5 g D-glucose/l and 1% (v/v) sodium pyruvate (Gibco BRL) together with various concentrations of peptide. Thereby the concentration of potassium in the cultures was reduced to 5 mM KCl. Two days after induction of apoptosis, the cells were fixed with 4% formaldehyde and stained with Hoechst 33258 as described for the survival assay employing hippocampal neurons.

As for “FGLd: MAP-type dendrimer of FGL; dendrimeric tetramer of the FGL peptide (EVYVVAENQQGKSKA)”, the “Social Recognition test” value in assay [1] (Study 1, sub-occipital, tested at day 14) is “No effect”. In assay [1] (Study 2, sub-occipital 5 μg, vs β-amyloid fragment only), the “Social Recognition test, time exploring a juvenile rat during the second trial” value was “significantly reduced the increased time spent”. The “percentage of freezing time” value with adult male Wistar rats (day 2 after conditioning, control 50.5%) was determined as 73.5%; in the assay on adult male Wistar rats (day 7 after conditioning, control 30.0%) it was 60.3%. The “Neuronal Survival (% of Control)” value in assay [2] (CGN (PND 3-4), 1 μg/mL) is on record as 131%* % of Control; in assay [2] (CGN (PND 3-4), 5 μg/mL) it was 110%* % of Control; in assay [2] (CGN (PND 3-4), 10 μg/mL), 132%* % of Control; in assay [2] (CGN (PND 3-4), 20 μg/mL) it was 117%** % of Control; in assay [2] (CGN (PND 7-8), 20 μg/mL), 175%* % of Control. In assay [2] (at 1-10 μg/ml, controls grown at low KCl = 100%), the “maximal neuroprotection of CGN” value is listed as 135%.
